Measured values published in US11839679B2, “Gamma-diketones for treatment and prevention of aging skin and wrinkles” (BioSplice Therapeutics, Inc., priority 2014, dated 2023).

Tested on: fine lines, wrinkles in the outer canthus of the eyes (crow's feet area)
Experiment: Change in Roughness and Wrinkle Depth via Visioscan, Example 2
Assay type: in vivo, human
Details: Topical 0.05% in Oil (Cohort 2), 21 test subjects
Text: Surface Evaluation of Living Skin Visioscan: The Visioscan (Courage and Khazaka) took a direct image of the living skin using a measuring head containing a CCD-camera and two metal halogen lamps positioned opposite each other in order to ensure even illumination of the measuring field on the skin (Skin Pharmacol Appl Skin Physiol (1999), 12(1-2), 1-11 and Cosmetic & Toiletries magazine (2009), 124(6), 51-54). The grey level distribution of the pixels in the image correspond to different phenomena (white pixels represent desquamation on the skin, dark pixels represent lines and wrinkles). The software with the Visioscan automatically calculates skin smoothness, skin roughness, scaliness and wrinkle parameters. Visioscan images were taken at the following time points: Baseline Day 0 (beginning of the study), Week 2, Week 4, Week 8, and Week 12 (end of the test).
The source data was Visioscan and PhotoGrammetrix Image Analysis readings along with subjective assessments, which were totaled and reported as average scores. Photographs were placed side by side as to compare the photographs of before and after application of the test product in the eye area. Wrinkle reduction analysis source data consisted of crow's feet area quantification in relative units (px), collected at baseline and, the week 2, 4, 8 and 12 evaluations. The data obtained via Visioscan and from PhotoGrammetrix Image Analysis was quoted as % differences from baseline at each of the previously described time points. A paired t-test analysis was conducted in order to compare the results of post test product application measurements to baseline measurements where applicable. Statistical significance was established if p≤(α=0.05) was calculated.
Four groups of women were recruited to evaluate and compare the efficacy of four anti-aging test products (targeting the periorbital eye area) intended to reduce the appearance of fine lines, wrinkles in the outer canthus of the eyes (crow's feet area) over a 12 week period. Wrinkle assessment was conducted instrumentally using a Visioscan image analysis system. Effectiveness of the test product was evaluated using panelist self-assessment via questionnaire responses. Each stage in the progression of treatments was photographically documented using High Resolution Scientifically Matched Photography technique. Image analysis was utilized to quantify changes in fine lines and crow's feet condition observed in the Scientifically Matched Photographs.
Subject Selection: • Number: Eighty three subjects (twenty or twenty one per group) to complete the study. • Sex: Females • Race: Caucasian/Asian/Hispanic • Age Range: 40 through 60 years old
Test samples: • Topical 0.15% of Compound #222 in Oil (a 50/50 mixture of Propylene Glycol Dicaprylate/Dicaprate and Caprylic/Capric Triglyceride) (Cohort 1) • Topical 0.05% of Compound #222 in Oil (a 50/50 mixture of Propylene Glycol Dicaprylate/Dicaprate and Caprylic/Capric Triglyceride) (Cohort 2) • Topical 0.15% of Compound #222 in PEG400 (Cohort 3) • Topical 0.05% of Compound #222 in PEG400 (Cohort 4)
The testing protocol and evaluation was the same as in Example 1.

`O=C(CCC(=O)c1ccc2c(c1)OCO2)c1ccccc1` [#222] was tested, and the “% Change in Roughness, Mean” value (Week 8 vs baseline) was −32.9%, the “% Change in Roughness, Median” value (Week 8 vs baseline) was −33.9% and the “% Change in Wrinkle Depth, Mean” value (Week 8 vs baseline) was −58.0%. For the same compound, the “% Change in Wrinkle Depth, Median” value (Week 8 vs baseline) was −59.3%, the “Change in Roughness, Mean” value (Week 8 vs baseline) was −0.85 and the “Change in Roughness, Median” value (Week 8 vs baseline) was −0.67. For the same compound, the “Change in Wrinkle Depth (×10^4), Mean” value (Week 8 vs baseline) was −0.89 ×10^4, the “Change in Wrinkle Depth (×10^4), Median” value (Week 8 vs baseline) was −0.79 ×10^4 and the “% Change in Roughness, Mean” value (Week 12 vs baseline) was −39.3%. The “% Change in Roughness, Median” value (Week 12 vs baseline) was −40.9%, the “% Change in Wrinkle Depth, Mean” value (Week 12 vs baseline) was −54.1% and the “% Change in Wrinkle Depth, Median” value (Week 12 vs baseline) was −63.5%. The “Change in Roughness, Mean” value (Week 12 vs baseline) was −1.01, the “Change in Roughness, Median” value (Week 12 vs baseline) was −0.79 and the “Change in Wrinkle Depth (×10^4), Mean” value (Week 12 vs baseline) was −0.92 ×10^4. For the same compound, the “Change in Wrinkle Depth (×10^4), Median” value (Week 12 vs baseline) was −0.85 ×10^4.
